Activity data for 46 compounds are collected here from ChEMBL document CHEMBL3272121, “Hypolipidemic analogues of ethyl 4-benzyloxybenzoate” (J Med Chem, 1977).

Data set [1] relates to Rattus norvegicus. Briefly: Hypolipidemic activity in CFY Sprague-Dawley rat assessed as serum triglyceride level at 0.25% dietary level administered for 7 days relative to control. In kind it is functional.
Data set [2] concerns Rattus norvegicus. Briefly: Hypolipidemic activity in CFY Sprague-Dawley rat assessed as serum cholesterol level at 0.25% dietary level administered for 7 days relative to control. It is filed as functional.
The test system of data set [3] is Rattus norvegicus. Briefly: Toxicity in CFY Sprague-Dawley rat assessed as body weight gain at 0.25% dietary level administered for 7 days relative to control. It is filed as organism-based. To be noted: in vivo, po, 168 h.
The subject of data set [4] is Rattus norvegicus. Kind of data set: Toxicity in CFY Sprague-Dawley rat assessed as relative liver weight at 0.25% dietary level administered for 7 days relative to control. It is filed as organism-based. The settings on record: in vivo, po, 168 h.

With `CCOC(=O)c1ccc(OCc2ccccc2Cl)cc1`, the Activity in the data set with Rattus norvegicus [1] is reported as -46%; in the data set with Rattus norvegicus [2], -7%; with Rattus norvegicus [3], -16%; in the data set with Rattus norvegicus [4], 7%.
On the same counts, the results for `OCc1ccc(OCc2ccccc2)cc1` are -45%, -3%, 11% and 15%.
On the same counts, the results for `NC(=O)c1ccc(OCc2ccccc2)cc1` are -63%, -1%, -2% and 13%.
Take `CCOC(=O)CCc1ccc(OCc2ccccc2F)cc1`: the Activity with Rattus norvegicus [1] is -49%; in the data set with Rattus norvegicus [2], -4%; in the data set on Rattus norvegicus [3], 14%; with Rattus norvegicus [4], 7%.
For `CCOC(=O)CCCc1ccc(OCc2ccccc2)cc1`, the Activity with Rattus norvegicus [1] is -59%; in the data set with Rattus norvegicus [2], -10%; with Rattus norvegicus [3] it was -57%; with Rattus norvegicus [4] it was 9%.
Take `CCCc1ccc(OCc2ccc(C)cc2)c(OC)c1`: the Activity with Rattus norvegicus [1] is 216%; in the data set on Rattus norvegicus [2], -13%; in the data set with Rattus norvegicus [3], -18%; in the data set with Rattus norvegicus [4], 33%.
For `COc1cc(C(=O)O)ccc1OCc1ccccc1`, the Activity was -28% in the data set on Rattus norvegicus [1], 0% with Rattus norvegicus [2], 15% in the data set with Rattus norvegicus [3] and 6% in the data set with Rattus norvegicus [4].
On the same counts, the results for `O=C(Oc1ccccc1)c1ccc(OCc2ccccc2)cc1` are -18%, 0%, -1% and 0%.
Consider `Cc1ccc(OCc2ccccc2)cc1C`, for which the Activity with Rattus norvegicus [1] is on record as -62%; in the data set on Rattus norvegicus [2] it was -3%; with Rattus norvegicus [3], 24%; in the data set on Rattus norvegicus [4], 13%.
On the same counts, the results for `CCOC(=O)c1ccc(COc2ccc(C(=O)OCC)cc2)cc1` are -60%, -11%, 3% and -2%.
`Cc1ccc(COc2ccc(C(=O)O)cc2)cc1`: the Activity with Rattus norvegicus [1] is recorded as -57%; in the data set with Rattus norvegicus [2] it was -10%; with Rattus norvegicus [3], -2%; with Rattus norvegicus [4] it was 11%.
Taken in the same sequence, the figures for `CCCCCCCCCCCCOC(=O)c1ccc(OCc2ccccc2)cc1` were -57%, -11%, -3% and 6%.
Taken in the same sequence, the figures for `CC(=O)c1ccc(OCc2ccccc2)cc1` were -46%, 9%, -11% and -6%.
Taken in the same sequence, the figures for `O=C(NC1CCCCC1)c1ccc(OCc2ccccc2)cc1` were -18%, -5%, -21% and 5%.
Take `CCOC(=O)c1ccc(COc2ccc(Cl)cc2)cc1`: the Activity with Rattus norvegicus [1] is given as 7%; with Rattus norvegicus [2], -13%; in the data set on Rattus norvegicus [3], -15%; with Rattus norvegicus [4], 42%.
As to `CCOC(=O)c1ccc(OCc2ccc([N+](=O)[O-])cc2)cc1`, the Activity with Rattus norvegicus [1] is given as -28%; in the data set with Rattus norvegicus [2], -12%; with Rattus norvegicus [3], -15%; in the data set on Rattus norvegicus [4], -2%.
Taken in the same sequence, the figures for `CCOC(=O)c1ccc(OCc2cccc(OC)c2)cc1` were -32%, -10%, 2% and 4%.
As to `O=C(O)c1ccc(OCc2ccc(Cl)c(Cl)c2)cc1`, the Activity is listed as -20% in the data set with Rattus norvegicus [1], -9% with Rattus norvegicus [2], 7% in the data set on Rattus norvegicus [3] and 18% in the data set with Rattus norvegicus [4].
Taken in the same sequence, the figures for `CCCCOC(=O)c1ccc(OCc2ccccc2)cc1` were -47%, -10%, -18% and 4%.
As to `O=C([O-])c1ccc(OCc2ccccc2)cc1.[K+]`, the Activity in the data set with Rattus norvegicus [1] was -57%; in the data set with Rattus norvegicus [2], -20%; in the data set on Rattus norvegicus [3], -12%; in the data set with Rattus norvegicus [4], 0%.
Taken in the same sequence, the figures for `CCOC(=O)c1ccc(COc2ccc(F)cc2)cc1` were -50%, -14%, 16% and 19%.
For `CCOC(=O)c1ccc(COc2ccc(C)cc2C)cc1`, the Activity in the data set with Rattus norvegicus [1] is recorded as 2%; in the data set on Rattus norvegicus [2], 3%; in the data set with Rattus norvegicus [3] it was 0%; in the data set on Rattus norvegicus [4], 0%.
Take `O=Cc1ccc(OCc2ccc(F)cc2)cc1`: the Activity is reported as -59% with Rattus norvegicus [1], -15% with Rattus norvegicus [2], 16% in the data set with Rattus norvegicus [3] and 15% with Rattus norvegicus [4].
Take `CCOC(=O)c1ccc(COc2ccc(Br)cc2)cc1`: the Activity in the data set on Rattus norvegicus [1] is reported as -16%; in the data set with Rattus norvegicus [2] it was -6%; with Rattus norvegicus [3], 3%; with Rattus norvegicus [4], 24%.
Consider `COc1cc(C(C)=O)ccc1OCc1ccccc1`, for which the Activity is on record as -51% with Rattus norvegicus [1], 5% with Rattus norvegicus [2], -37% in the data set on Rattus norvegicus [3] and 13% in the data set on Rattus norvegicus [4].
Taken in the same sequence, the figures for `CCCCCCCCCCCCc1ccc(OCc2ccccc2)cc1` were -37%, 2%, 9% and 8%.
Turning to `CCOC(=O)c1ccc(OCc2ccc(OC)cc2)cc1`, the Activity in the data set with Rattus norvegicus [1] is reported as -55%; with Rattus norvegicus [2] it was -7%; in the data set with Rattus norvegicus [3], -52%; with Rattus norvegicus [4], 20%.
For `CCOC(=O)c1ccc(OCc2ccc(Cl)c(Cl)c2)cc1`, the Activity with Rattus norvegicus [1] is on record as 5%; with Rattus norvegicus [2], -7%; with Rattus norvegicus [3], -5%; with Rattus norvegicus [4], 10%.
Take `CCOC(=O)c1ccccc1OCc1ccccc1`: the Activity was -15% with Rattus norvegicus [1], 0% with Rattus norvegicus [2], -26% in the data set with Rattus norvegicus [3] and -2% in the data set with Rattus norvegicus [4].
With `O=C(OC1CCCC1)c1ccc(OCc2ccccc2)cc1`, the Activity in the data set with Rattus norvegicus [1] is on record as -29%; in the data set with Rattus norvegicus [2], -14%; in the data set with Rattus norvegicus [3], -4%; in the data set with Rattus norvegicus [4], -14%.
Consider `CCOC(=O)c1ccc(OCc2ccc(OC)c(OC)c2)cc1`, for which the Activity with Rattus norvegicus [1] is listed as -33%; with Rattus norvegicus [2], -1%; in the data set on Rattus norvegicus [3] it was -20%; in the data set on Rattus norvegicus [4] it was 11%.
Consider `N#Cc1ccc(OCc2ccccc2)cc1`, for which the Activity with Rattus norvegicus [1] is recorded as -31%; with Rattus norvegicus [2], 7%; in the data set with Rattus norvegicus [3] it was -14%; in the data set on Rattus norvegicus [4], 8%.
Taken in the same sequence, the figures for `CCOC(=O)c1ccc(COc2ccc(OC)cc2)cc1` were -57%, 4%, -19% and -4%.
`COc1ccccc1COc1ccc(C(=O)O)cc1`: the Activity with Rattus norvegicus [1] is recorded as 71%; with Rattus norvegicus [2], -29%; in the data set on Rattus norvegicus [3], 3%; in the data set with Rattus norvegicus [4], 17%.
As to `CCOC(=O)c1ccc(COc2ccc(C)c(C)c2)cc1`, the Activity is on record as 109% with Rattus norvegicus [1], 3% with Rattus norvegicus [2], -1% with Rattus norvegicus [3] and 10% with Rattus norvegicus [4].
Regarding `CCOC(=O)c1cccc(OCc2ccccc2)c1`, the Activity was -30% with Rattus norvegicus [1], 4% in the data set on Rattus norvegicus [2], 4% with Rattus norvegicus [3] and 6% in the data set with Rattus norvegicus [4].
Consider `CCOC(=O)c1ccc(COc2ccc(C#N)cc2)cc1`, for which the Activity is -21% in the data set with Rattus norvegicus [1], -12% with Rattus norvegicus [2], -46% with Rattus norvegicus [3] and 20% in the data set on Rattus norvegicus [4].
On the same counts, the results for `CCOC(=O)Cc1ccc(OCc2cccc(OC)c2OC)cc1` are -25%, 1%, 12% and 20%.
With `CCOC(=O)c1ccc(OCc2ccccc2C)cc1`, the Activity is -58% in the data set on Rattus norvegicus [1], -10% with Rattus norvegicus [2], -23% in the data set with Rattus norvegicus [3] and 0% in the data set with Rattus norvegicus [4].
For `CCOC(=O)CCc1ccc(OCc2cccc(OC)c2OC)cc1`, the Activity in the data set with Rattus norvegicus [1] was -9%; in the data set on Rattus norvegicus [2], 7%; in the data set on Rattus norvegicus [3], 4%; in the data set with Rattus norvegicus [4] it was 23%.
Take `CCCCCCCCCCCCNC(=O)c1ccc(OCc2ccccc2)cc1`: the Activity in the data set on Rattus norvegicus [1] is listed as -11%; in the data set with Rattus norvegicus [2] it was 1%; with Rattus norvegicus [3], 2%; with Rattus norvegicus [4] it was -5%.
On the same counts, the results for `O=C(c1ccc(OCc2ccccc2)cc1)N1CCCCC1` are 10%, 14%, -67% and 2%.
On to `O=C([O-])c1ccc(OCc2ccccc2)cc1.O=C([O-])c1ccc(OCc2ccccc2)cc1.[Ca+2]`, for which the Activity in the data set on Rattus norvegicus [1] is -53%; with Rattus norvegicus [2], -8%; with Rattus norvegicus [3] it was -12%; in the data set on Rattus norvegicus [4] it was 0%.
Taken in the same sequence, the figures for `CCOC(=O)CCc1ccc(OCc2cccc(F)c2)cc1` were 57%, -11%, 12% and 7%.
On the same counts, the results for `CCCCCCCCCCOC(=O)c1ccc(OCc2ccccc2)cc1` are -64%, -9%, -17% and 13%.
For `CCCCCCOC(=O)c1ccc(OCc2ccccc2)cc1`, the Activity in the data set with Rattus norvegicus [1] was -64%; with Rattus norvegicus [2], -9%; with Rattus norvegicus [3], -3%; with Rattus norvegicus [4] it was 8%.
